The values below come from US20080221132A1, “Multi-Functional Small Molecules as Anti-Proliferative Agents” (priority 2006, published 2008).

For test [1], the system named is Breast_MCF7 (MCF-7, breast adenocarcinoma). The test can be described thus: Cell proliferation assay (ATPlite), MCF7. In kind it is cell-based. The settings on record: Homo sapiens, TABLE D, Breast adenocarcinoma, read-out: IC50 grading, MCF-7. As to the method: (§1) A representative number of compounds were assayed against several different cell lines using the cell proliferation assay:
(§2) Cell Proliferation Assay:
(§3) Cancer cell lines were plated at 5,000 to 10,000 per well in 96-well flatted bottomed plates with various concentration of compounds. […] Growth inhibition was accessed by adenosine triphosphate (ATP) content assay using Perkin Elmer ATPlite kit. ATPlite is an ATP monitoring system based on firefly luciferase. Briefly, 25 μl of mammalian cell lysis solution was added to 50 μl of phenol red-free culture medium per well to lyse the cells and stabilize the ATP. 25 μl of substrate solution was then added to the well and subsequently the luminescence was measured.
In general terms: Cellular ATP, detected with luciferase, serves as a proxy for viable cell number.

Test [2] deals with Breast_MDAMB468 (MDA-MB-468, breast adenocarcinoma). Description: Cell proliferation assay (ATPlite), MDA-MB-468. In kind it is cell-based. The settings on record: Homo sapiens, TABLE D, Breast adenocarcinoma, read-out: IC50 grading, MDA-MB-468. As to the method: as §1, §2, §3
The subject of test [3] is Breast_SkBr3 (SKBr3, breast carcinoma). The test can be described thus: Cell proliferation assay (ATPlite), SkBr3. The test is classed as cell-based. Particulars: Homo sapiens, SK-BR-3; TABLE D; Breast carcinoma; read-out: IC50 grading, SKBr3. As to the method:
as §1, §2, §3

In test [4] the test system is Colon_HCT116 (HCT116, colon cancer). The test can be described thus: Cell proliferation assay (ATPlite), HCT116. The test is classed as cell-based. Particulars: Homo sapiens, HCT-116; TABLE D; Colon cancer; read-out: IC50 grading, HCT116. On the procedure: as §1, §2, §3
The test system of test [5] is Epidermoid_A431 (A431, epidermoid carcinoma). Description: Cell proliferation assay (ATPlite), A431. In kind it is cell-based. The settings on record: Homo sapiens, A-431; TABLE D; Epidermoid carcinoma; read-out: IC50 grading, A431. As to the method: as §1, §2, §3
For test [6], the system named is Prostate_22RV1 (22RV1, prostate carcinoma). Description: Cell proliferation assay (ATPlite), 22RV1. The test is classed as cell-based. Particulars: Homo sapiens, TABLE D, Prostate carcinoma, read-out: IC50 grading, 22RV1. As to the method: as §1, §2, §3
Test [7] deals with Prostate_PC3 (PC-3, prostate adenocarcinoma). Description: Cell proliferation assay (ATPlite), PC3. Particulars: TABLE D; Prostate adenocarcinoma; read-out: IC50 grading, PC-3. In kind it is cell-based. As to the method:
as §1, §2, §3

Test [8] has as its system MDA-MB-231 (breast adenocarcinoma). The test can be described thus: Cell proliferation assay (ATPlite), MDA-MB-231. In kind it is cell-based. Particulars: Homo sapiens, TABLE D, read-out: IC50 grading, MDA-MB-231. As to the method:
as §1, §2, §3

Test [9] has as its system Caki-1 (renal carcinoma). Description: Cell proliferation assay (ATPlite), Caki-1. The settings on record: Homo sapiens, TABLE D, read-out: IC50 grading, Caki-1. In kind it is cell-based. As to the method: as §1, §2, §3
The subject of test [10] is HCT-116 (colon) and SKBr3 (breast) cancer cells. Description: Induction of apoptosis, Caspase 3&7 activity (FIG. 4). The test is classed as cell-based. Particulars: concentration <20 μM.
For test [11], the system named is A549 NSCLC xenograft. The test can be described thus: A549 NSCLC Xenograft Model. In kind it is in vivo. The settings on record: FIG. 11A, 11B.

As a reminder, the IC50 is the midpoint of a concentration-inhibition curve.

A value given as a limit tells only on which side of the number the result lay.

On to `C#Cc1cccc(Nc2ncnc3cc(OCCOC)c(OCCOC)cc23)c1` [Erlotinib, reference compound], for which the IC50 in [1] was at least 5 µM; in test [2] it was 0.5 to 5 µM; in test [3], at least 5 µM; in test [4], at least 5 µM; in [5], 0.5 to 5 µM; in test [6] it was 0.05 to 0.5 µM. For the same molecule, the IC50 is at least 5 µM in [7], at least 5 µM in test [8] and 0.05 to 0.5 µM in test [9]. Also, the “induction of apoptosis (Caspase 3&7 activity)” value in [10] was “inactive”. Besides, the “effect on tumor growth / tumor size” value in [11] is reported as “did not significantly affect tumor size”.
